Assay results taken from patent US20250059520A1, “SGK1 INHIBITORY COMPOSITIONS AND METHODS” (Arizona Board of Regents on Behalf of the University of …, priority 2021, published 2025).
Ends that are not written are not given here.

Key:
[1] = tested on: isolated adult mouse ventricular myocytes (AMVMs); assay: Uptake, hypertrophic growth and ANP mRNA in AMVMs treated ± PE for 24 h; assay type: cell-based; settings: AMVMs ± PE 24 h, several peptide doses
Procedure: FIGS. 12A to 12E show TAT-SGK1-(Pep) Stops Growth of Myocytes.
(§1) TAT-SGK1-(Pep) inhibits myocyte growth and fibroblast activation: Next, a SGK1-(Pep) peptide was designed and synthesized with an N-terminal TAT sequence to facilitate its direct delivery to cultured cells, and potentially to mice. To test its effectiveness, isolated adult mouse ventricular myocytes (AMVMs) were treated with either vehicle or a FITC-labeled form of the peptide, then imaged to show uptake (FIG. 12A). […] Thus, the TAT-SGK1-(Pep) affects AMVM growth as anticipated. […] Finally, since TGFβ-stimulated SGK1 has been implicated in fibrosis (Artunc F and Lang F. Nephron Physiol. 2014 128:35-9), a major maladaptive aspect of pressure overload cardiac pathology, the effects of the TAT-SGK1-(Pep) on TGFβ-mediated induction of two markers of fibrosis, α-smooth muscle actin (α-SMA) and periostin, was examined in adult mouse ventricular fibroblasts (AMVF). […] These findings underscore the SGK1-specificity of the peptide, as well as the possibility that some of the adaptive effects of the peptide could include dampening inflammasome activation and decreasing fibrosis.

[2] = tested on: endogenous SGK1; assay: Rate of endogenous SGK1 degradation in NRVM; assay type: cell-based, rat; settings: degradation dependent on Hrd1
[3] = tested on: endogenous SGK1; assay: Rate of endogenous SGK1 degradation in AMVM; assay type: cell-based, mouse
[4] = tested on: TAC-induced heart failure with reduced ejection fraction; assay: Heart failure induced by transaortic constriction (TAC) in mice, echocardiography; assay type: in vivo, mouse
Excerpt: Animals were randomly assigned to cohorts and a five-digit identifier number.
FIGS. 18A to 18D show LV mass (FIG. 18A), ejection fraction (FIG. 18B), cardiac stiffening (E/e′) (FIG. 18C), and A wave (FIG. 18D) in mice treated with control peptide, SGK1 peptide, or delayed treatment of SGK1 peptide. The mice were 4-weeks into a 6-week heart failure paradigm induced by transaortic constriction (TAC), a gold standard preclinical model of heart failure with reduced ejection fraction. […] Consistent pressure gradients to confirm standardized severity of the TAC procedure across cohorts is performed 1-week post-TAC via carotid flow Doppler ratios of the inominate to left common carotids.

[5] = tested on: adult mouse ventricular fibroblasts (AMVF); assay: TGFβ-mediated induction of fibrosis and inflammasome marker mRNAs in AMVF (qRT-PCR); assay type: cell-based; settings: 48 h
Procedure: FIGS. 13A to 13C show effects of TAT-SGK1-(Pep) in AMVFs: TAT-SGK1-(Pep) [P] added to AMVFs at the conc shown±TGFβ. 48 h later cultures analyzed for α-SMA (FIG. 13A), periostin (FIG. 13B), IL1b (FIG. 13C) mRNAs shown by qRT-PCR. n=3 cultures/treatment*$ p<0.05 different from all other values (ANOVA).
as §1

[6] = tested on: neonatal rat ventricular myocytes (NRVMs); assay: PE-mediated ANP expression, growth and SGK1 degradation in NRVM with ectopic expression of the SGK1 peptide; assay type: cell-based; settings: NRVM ± AdV-SGK1 peptide
Excerpt: (§2) FIGS. 11A to 11C show SGK1(122-157) Interrupts SGK1/GILZ Interaction and Decreases Cardiac Myocyte Growth. FIG. 11A illustrates how a small SGK1-related peptide could disrupt SGK1-GILZ interaction, increase SGK1 degradation and reduce cardiac myocyte growth. […] NRVM were infected with AdV-Con or FLAG-SGK-(122-157). […] FLAG IP efficiently pulled down the FLAG-SGK peptide (5, 6) as well as GILZ (7, 8).
SGK1 and GILZ were shown herein to be increased in pathological hypertrophic human and mouse hearts. In mice, SGK1 degradation was slowed during pressure overload. Cardiac-specific deletion of SGK1 in mice decreased pressure overload-induced hypertrophy, whereas overexpression of SGK1 increased it. Removing the SGK1 ER-targeting sequence, or overexpressing GILZ decreased SGK1 degradation in neonatal rat ventricular myocytes (NRVMs) and increased growth; GILZ knockdown decreased growth. A 35 amino acid region in SGK1 that interacts with GILZ was identified; ectopic expression of this peptide increased SGK1 degradation and decreased NRVM growth.
(§3) Thus, it is anticipated that AAV9-FLAG-SGK1-(Pep) can increase SGK1 degradation and, thus, blunt pressure overload-induced pathological cardiac hypertrophy and subsequent heart failure in mice, in vivo.

[7] = molecular target: T1, GILZ (Rattus norvegicus, UniProt Q9EQZ1); assay: FLAG immunoprecipitation of GILZ from NRVM infected with AdV-FLAG-SGK1(122-157); assay type: binding
T1 construct: FLAG IP efficiently pulled down the FLAG-SGK peptide (5, 6) as well as GILZ (7, 8); endogenous in cells; host or cells: NRVM (neonatal rat ventricular myocytes) infected with AdV-Con or AdV-FLAG-SGK1(122-157)
T1 sequence (Q9EQZ1 1-134): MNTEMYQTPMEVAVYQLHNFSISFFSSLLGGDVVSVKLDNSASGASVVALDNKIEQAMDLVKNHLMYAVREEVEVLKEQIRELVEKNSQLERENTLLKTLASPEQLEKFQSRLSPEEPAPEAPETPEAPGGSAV
Excerpt: as §2, §3

[8] = chronic administration, 4 weeks into 6-week TAC paradigm

Row | Sequence | ANP mRNA [1] | cardiac myocyte remodeling (hypertrophic growth, width to length ratio) [1] | endogenous SGK1 degradation [2] | endogenous SGK1 degradation [3] | TAC-induced left ventricular hypertrophy (LV Mass) [4, 8] | diastolic dysfunction and cardiac stiffening (E/e′) [4, 8] | early indicator of congestion (mitral atrial flow velocity, A wave) [4, 8] | systolic dysfunction (ejection fraction) [4, 8] | toxic effects [4, 8] | cardiac dysfunction and remodeling ([4]; delayed administration starting at 2-weeks post-TAC) | TGFβ-mediated induction of periostin mRNA [5] | TGFβ-mediated induction of α-smooth muscle actin (α-SMA) mRNA [5] | mRNA for IL1β, marker of inflammasome activation [5] | PE-mediated ANP expression (ANP mRNA) [6] | binding to GILZ in IP experiments [7]
1 | GRKKRRQRRRPQVFYAVKVLQKKAILKKKEEKHIMSERNVLLKNVKHP [TAT-SGK1-(Pep)] | dose-dependent decrease | dose-dependent decrease | accelerate endogenous SGK1 degradation | accelerate endogenous SGK1 degradation | conferring protection | conferring protection | conferring protection | conferring protection | no signs of untoward toxic effects | shows signs of cardioprotection and reversal of early cardiac dysfunction and remodeling | effectively inhibited induction | effectively inhibited induction | inhibited |  | 
2 | VFYAVKVLQKKAILKKKEEKHIMSERNVLLKNVKHP (not fully specified) [SGK1-(Pep), FLAG-tagged amino acids 122-157 of SGK1, ectopically expressed from an adenovirus (AdV)] |  |  |  |  |  |  |  |  |  |  |  |  |  | blunted PE-mediated ANP expression | could bind to GILZ
